Test results reported in publication PMC5974469, “A New Family of Capsule Polymerases Generates Teichoic Acid-Like Capsule Polymers in Gram-Negative Pathogens” (mBio, 2018).

Molecular target: T1, Cps3D (Actinobacillus pleuropneumoniae, UniProt A0A2S0ETM3)
T1 construct: MBP-Cps3D-His6 (177 kDa), full-length, tags kept, expressed in E. coli M15[pREP4]
Experiment: HPLC-AEC of donor consumption, PAGE and NMR of polymer
Type: biochemical
Conditions: 20 mM Tris pH 8.0, 10 mM MgCl2, 1 mM DTT, 37 °C; no primer; with UDP-Gal

T1 sequence (A0A2S0ETM3 entry or part of it): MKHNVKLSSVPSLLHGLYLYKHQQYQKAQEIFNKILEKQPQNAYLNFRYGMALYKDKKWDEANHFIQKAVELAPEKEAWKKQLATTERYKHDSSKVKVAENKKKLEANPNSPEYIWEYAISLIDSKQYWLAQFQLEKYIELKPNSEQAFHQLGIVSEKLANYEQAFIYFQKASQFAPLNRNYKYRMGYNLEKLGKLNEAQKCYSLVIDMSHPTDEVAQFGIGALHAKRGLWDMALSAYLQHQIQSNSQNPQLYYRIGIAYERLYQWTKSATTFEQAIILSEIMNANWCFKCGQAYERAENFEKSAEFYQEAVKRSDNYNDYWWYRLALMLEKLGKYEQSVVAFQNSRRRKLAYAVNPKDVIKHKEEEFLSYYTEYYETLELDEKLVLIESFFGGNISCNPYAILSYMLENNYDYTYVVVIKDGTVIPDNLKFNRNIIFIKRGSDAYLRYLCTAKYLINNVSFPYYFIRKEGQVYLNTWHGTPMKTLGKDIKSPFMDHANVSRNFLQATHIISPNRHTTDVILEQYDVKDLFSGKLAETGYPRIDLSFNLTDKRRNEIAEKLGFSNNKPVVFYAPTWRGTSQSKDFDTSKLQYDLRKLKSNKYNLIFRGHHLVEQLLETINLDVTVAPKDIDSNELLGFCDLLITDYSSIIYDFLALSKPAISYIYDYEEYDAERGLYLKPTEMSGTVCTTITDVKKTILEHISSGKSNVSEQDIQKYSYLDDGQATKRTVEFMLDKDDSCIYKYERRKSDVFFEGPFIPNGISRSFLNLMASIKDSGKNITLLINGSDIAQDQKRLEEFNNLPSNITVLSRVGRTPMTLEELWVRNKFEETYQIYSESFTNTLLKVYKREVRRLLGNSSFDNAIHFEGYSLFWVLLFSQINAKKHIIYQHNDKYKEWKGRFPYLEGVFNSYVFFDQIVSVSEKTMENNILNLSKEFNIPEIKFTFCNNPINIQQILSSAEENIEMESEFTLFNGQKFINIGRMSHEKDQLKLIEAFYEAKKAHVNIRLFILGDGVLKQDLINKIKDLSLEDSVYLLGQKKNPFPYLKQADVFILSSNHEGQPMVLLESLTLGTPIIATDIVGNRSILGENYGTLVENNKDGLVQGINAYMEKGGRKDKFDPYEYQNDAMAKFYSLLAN

## Nc1ccn([C@@H]2O[C@H](COP(=O)(O)OP(=O)(O)OC[C@H](O)CO)[C@@H](O)[C@H]2O)c(=O)n1 (racemic) [CDP-glycerol]
  HPLC-AEC of donor consumption, PAGE and NMR of polymer: both enantiomers are substrates for the enzymes as shown by the complete consumption of CDP-glycerol
